Among the data in patent publication US20240199548A1, “NOVEL COMPOUNDS USEFUL AS STING AGONISTS AND USES THEREOF” (Jacobio Pharmaceuticals Co., Ltd., priority 2021, published 2024) are IC50 values, retold here.

The structures appear in SMILES notation.

Sequence of human STING WT protein (Q86WV6 whole entry H232R): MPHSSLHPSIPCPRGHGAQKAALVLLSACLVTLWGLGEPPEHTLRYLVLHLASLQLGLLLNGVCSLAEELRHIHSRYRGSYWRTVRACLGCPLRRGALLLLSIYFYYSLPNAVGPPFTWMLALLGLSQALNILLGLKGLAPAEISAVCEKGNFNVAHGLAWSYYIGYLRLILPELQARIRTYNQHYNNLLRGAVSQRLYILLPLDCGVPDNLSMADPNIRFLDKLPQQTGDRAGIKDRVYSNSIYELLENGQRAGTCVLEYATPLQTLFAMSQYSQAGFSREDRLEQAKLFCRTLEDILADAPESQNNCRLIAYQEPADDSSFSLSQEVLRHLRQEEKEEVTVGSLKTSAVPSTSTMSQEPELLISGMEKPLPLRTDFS

The target of this assay is human STING WT protein (Homo sapiens, UniProt Q86WV6). Nature of the assay: Human STING WT binding assay (Cisbio HTRF). Conditions: HTRF competition with STING WT ligand d2, 6 His-tagged human STING WT, 3 hours at RT; read-out: hSTING WT binding IC50. The protocol:
Example A: Human STING WT Binding Assay
Cisbio Bioassays' human STING WT binding assay (#64 BDSTGPEG & 64 BDSTGPEH, Cisbio) is for quantitative measurement of human STING WT ligand using HTRF® technology.
Negative control: Dispense 5 μL of diluent into each negative control well. Standard: Dispense 5 μL of each Human STING WT Standard 2′3′-cGAMP (Std 0-Std 7) into each standard well. Compound: Dispense 5 μL of compound into each compound well.
Negative control: Add 5 μL of detection buffer to all wells. Other wells: Add 5 μL of human STING WT protein 6 His-tagged protein to all wells.
Add 10 μL of premixed STING WT ligand d2 reagent and 6 His Tb antibody working solution to all wells.
Seal the plate and incubate 3 hours at RT or at Over Night if necessary.
Remove the plate sealer and read on an HTRF® compatible reader (PerkinElmer, USA). Results were analyzed with a two-wavelength signal ratio:intensity (665 nm)/intensity (620 nm).
Fit the data in GraphPad to obtain IC50 values using equation (2)
Y=Bottom+(Top−Bottom)/(1+10^((Log IC50−X)*Hill Slope)) Equation (2)
Y is HTRF Ratio and X is compound concentration.
(In general: Time-resolved FRET reads energy transfer from a long-lived donor to a nearby acceptor.)
One may read the IC50 as the midpoint of a concentration-inhibition curve. Regarding `COc1cc2c(cc1OCCCOc1cc3c(cc1OC)CN(C(=O)CCC(=O)O)C3)CN(C(=O)CCC(=O)O)C2` [Example 1, 4,4′-((propane-1,3-diylbis(oxy))bis(6-methoxyisoindoline-5,2-diyl))bis(4-oxobutanoic Acid)], the IC50 was below 0.1 nM.

Consider `COc1cc2c(cc1OCCCOc1cc3c(c(F)c1OC)CN(C(=O)CCC(=O)O)C3)CN(C(=O)CCC(=O)O)C2` [Example 2, 4-(6-(3-((2-(3-carboxypropanoyl)-6-methoxyisoindolin-5-yl)oxy)propoxy)-4-fluoro-5-methoxyisoindolin-2-yl)-4-oxobutanoic Acid], for which the IC50 is 33.7 nM.

As to `COc1cc2c(cc1OCCCOc1cc3c(cc1OC)CN(C(=O)C[C@H](C)C(=O)O)C3)CN(C(=O)CCC(=O)O)C2` [Example 3, Sodium (S)-4-(5-(3-((2-(3-carboxylatopropanoyl)-6-methoxyisoindolin-5-yl)oxy)propoxy)-6-methoxyisoindolin-2-yl)-2-methyl-4-oxobutanoate], the IC50 stood at 1.63 nM.

On to `COc1cc2c(cc1OCCCOc1c(OC)cc3c(c1F)CN(C(=O)CCC(=O)O)C3)CN(C(=O)CCC(=O)O)C2` [Example 4, 4-(5-(3-((2-(3-carboxypropanoyl)-4-fluoro-6-methoxyisoindolin-5-yl)oxy)propoxy)-6-methoxyisoindolin-2-yl)-4-oxobutanoic Acid], for which the IC50 turned out to be 0.68 nM.

On to `COc1cc2c(nc1OCCCOc1nc3c(cc1OC)CN(C(=O)CCC(=O)O)C3)CN(C(=O)CCC(=O)O)C2` [Example 5, 4,4′-((propane-1,3-diylbis(oxy))bis(3-methoxy-5,7-dihydro-6H-pyrrolo[3,4-b]pyridine-2,6-diyl))bis(4-oxobutanoic Acid)], for which the IC50 was found to be 3.28 nM.

In the case of `COc1cc2c(c(F)c1OCCCOc1c(OC)cc3c(c1F)CN(C(=O)CCC(=O)O)C3)CN(C(=O)CCC(=O)O)C2` [Example 9, 4,4′-((propane-1,3-diylbis(oxy))bis(4-fluoro-6-methoxyisoindoline-5,2-diyl))bis(4-oxobutanoic acid)], the IC50 was found to be 0.32 nM.

On to `C=C(COc1cc2c(cc1OC)CN(C(=O)CCC(=O)O)C2)COc1cc2c(cc1OC)CN(C(=O)CCC(=O)O)C2` [Example 10, 4,4′-(((2-methylenepropane-1,3-diyl)bis(oxy))bis(6-methoxyisoindoline-5,2-diyl))bis(4-oxobutanoic acid)], for which the IC50 turned out to be 150 nM.

Regarding `COc1cc2c(c(F)c1OCCCOc1c(OC)cc3c(c1Cl)CN(C(=O)CCC(=O)O)C3)CN(C(=O)CCC(=O)O)C2` [Example 13, 4-(5-(3-((2-(3-carboxypropanoyl)-4-chloro-6-methoxyisoindolin-5-yl)oxy)propoxy)-4-fluoro-6-methoxyisoindolin-2-yl)-4-oxobutanoic acid], the IC50 turned out to be 149 nM.

On to `COc1cc2c(cc1OCCCOc1cc3c(cc1OC)CN(C(=O)NCCC(=O)O)C3)CN(C(=O)CCC(=O)O)C2` [Example 14, 4-(5-(3-((2-((2-carboxyethyl)carbamoyl)-6-methoxyisoindolin-5-yl)oxy)propoxy)-6-methoxyisoindolin-2-yl)-4-oxobutanoic acid], for which the IC50 amounted to 144 nM.
